Measured values as given in ChEMBL document CHEMBL1201862, “PubChem BioAssay data set” (2004).
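Five compound concentrations were applied to cells in 96-well plates for 48 hours; endpoints were derived by simple linear interpolation of the resulting dose-response curve. GI50 is the concentration that inhibits growth by half.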 Calls of active or inactive are those of the source. Rule as the data show it: active = GI50 up to about 1.1 µM and inactive = higher.

Tests used:
Test in all cases: NCI tumour cell line growth inhibition, 48 h
A498 = test system: A498
A549 = test system: A549
CCRF-CEM = test system: CCRF-CEM
HCC 2998 = test system: HCC 2998
HT-29 = test system: HT-29
IGROV-1 = test system: IGROV-1
KM-20L2 = test system: KM-20L2
MOLT-4 = test system: MOLT-4
Malme-3M = test system: Malme-3M
NCI-H226 = test system: NCI-H226
NCI-H23 = test system: NCI-H23
NCI-H460 = test system: NCI-H460
SF-295 = test system: SF-295
SK-MEL-5 = test system: SK-MEL-5
SW-620 = test system: SW-620
TK-10 = test system: TK-10
U-251 = test system: U-251
UO-31 = test system: UO-31
SR = test system: SR
Hs-578T = test system: Hs-578T

Compound | GI50 (A498) | GI50 (A549) | GI50 (CCRF-CEM) | GI50 (HCC 2998) | GI50 (HT-29) | GI50 (IGROV-1) | GI50 (KM-20L2) | GI50 (MOLT-4) | GI50 (Malme-3M) | GI50 (NCI-H226) | GI50 (NCI-H23) | GI50 (NCI-H460) | GI50 (SF-295) | GI50 (SK-MEL-5) | GI50 (SW-620) | GI50 (TK-10) | GI50 (U-251) | GI50 (UO-31) | GI50 (SR) | GI50 (Hs-578T)
CC12CCC3(C1)[C@H](CC2=O)C[C@@H](OC(=O)c1ccccc1)C1C(C)(CO)CCC[C@@]13C (stereo partly drawn) | 3.12 µM (inactive) | 3.46 µM (inactive) | 2.29 µM (inactive) | 1.97 µM (inactive) | 3.56 µM (inactive) | 6.49 µM (inactive) | 1.82 µM (inactive) | 1.54 µM (inactive) | 9.42 µM (inactive) | 1.6 µM (inactive) | 0.681 µM (active) | 1.05 µM (active) | 0.322 µM (active) | < 0.01 µM (active) | 2.37 µM (inactive) | > 21.9 µM (inactive) | 2.38 µM (inactive) | 4.15 µM (inactive) |  | 
COC(=O)C(C(=O)C(=O)Nc1c(C)cccc1C)c1cnc2ccccc2n1 (stereo not drawn) | > 100 µM (inactive) | > 100 µM (inactive) | > 100 µM (inactive) | > 100 µM (inactive) | > 100 µM (inactive) | > 100 µM (inactive) | > 100 µM (inactive) | > 100 µM (inactive) | > 100 µM (inactive) | > 100 µM (inactive) | > 100 µM (inactive) | > 100 µM (inactive) | > 100 µM (inactive) | > 100 µM (inactive) | > 100 µM (inactive) | > 100 µM (inactive) | > 100 µM (inactive) | > 100 µM (inactive) | > 100 µM (inactive) | 
CCN(CC)CCSc1c2ccccc2nc2cc(NCC(=O)Nc3ccccc3-c3ccccc3NC(=O)CNc3ccc4c(SCCN(CC)CC)c5ccccc5nc4c3)ccc12 | > 100 µM (inactive) | > 100 µM (inactive) | 24.9 µM (inactive) | > 100 µM (inactive) | > 100 µM (inactive) | > 100 µM (inactive) | > 100 µM (inactive) | 23.2 µM (inactive) | > 77.3 µM (inactive) | > 100 µM (inactive) | > 100 µM (inactive) | > 100 µM (inactive) | > 100 µM (inactive) | > 100 µM (inactive) | > 100 µM (inactive) | > 100 µM (inactive) | > 100 µM (inactive) | > 100 µM (inactive) | 34.1 µM (inactive) | 
C1=C2/CC[C@H](Sc3ccccc3)C2C2(CCCCC/1)OCCO2 (stereo partly drawn) |  |  | 28.6 µM (inactive) | 23.5 µM (inactive) | 14.4 µM (inactive) | 27.9 µM (inactive) | 18.2 µM (inactive) | 16.6 µM (inactive) | 22.1 µM (inactive) | 23.6 µM (inactive) | 16.2 µM (inactive) | 21.5 µM (inactive) | 27.5 µM (inactive) |  | 28.1 µM (inactive) | 83.9 µM (inactive) | 29.3 µM (inactive) |  | 10.7 µM (inactive) | 
COC(=O)/C(=N\NC(=O)C[N+](C)(C)C)C(C(=O)OC)C(=O)C(=O)Nc1ccccc1C(N)=O (stereo not drawn) | > 100 µM (inactive) | > 100 µM (inactive) | > 100 µM (inactive) | > 100 µM (inactive) | > 100 µM (inactive) | > 100 µM (inactive) | > 100 µM (inactive) | > 100 µM (inactive) | > 100 µM (inactive) | > 100 µM (inactive) | > 100 µM (inactive) | > 100 µM (inactive) | > 100 µM (inactive) | > 100 µM (inactive) | > 100 µM (inactive) | > 100 µM (inactive) | > 100 µM (inactive) | > 100 µM (inactive) | > 100 µM (inactive) | 
Cc1cccc(C(C)(C)C)c1NC(=O)C(=O)C(C(=O)/C=C\c1ccccc1)C1OC(=O)c2ccccc21 (stereo not drawn) | > 100 µM (inactive) | > 100 µM (inactive) | > 100 µM (inactive) | > 100 µM (inactive) | > 100 µM (inactive) | > 100 µM (inactive) | > 100 µM (inactive) | > 100 µM (inactive) | > 100 µM (inactive) | > 100 µM (inactive) | > 100 µM (inactive) | > 100 µM (inactive) | > 100 µM (inactive) | > 100 µM (inactive) | > 100 µM (inactive) | > 100 µM (inactive) | > 100 µM (inactive) | > 100 µM (inactive) | > 100 µM (inactive) | 
O=c1[nH]c(=O)n(C2CC(O)C(O)C(CO)O2)cc1F (stereo not drawn) | > 100 µM (inactive) | > 100 µM (inactive) | > 100 µM (inactive) | > 100 µM (inactive) | > 100 µM (inactive) | > 100 µM (inactive) | > 100 µM (inactive) | > 100 µM (inactive) | > 100 µM (inactive) | > 100 µM (inactive) | > 100 µM (inactive) | > 100 µM (inactive) | > 100 µM (inactive) |  | > 100 µM (inactive) | > 100 µM (inactive) | > 100 µM (inactive) | > 100 µM (inactive) |  | 
CCCCCCCCCCCC(=O)OCC1OC(n2cc(F)c(=O)[nH]c2=O)C(NC(=O)OCc2ccccc2)C(OC(=O)CCCCCCCCCCC)C1O (stereo not drawn) | > 100 µM (inactive) | > 100 µM (inactive) | > 100 µM (inactive) | > 100 µM (inactive) | > 100 µM (inactive) | > 100 µM (inactive) | > 100 µM (inactive) | > 100 µM (inactive) | > 100 µM (inactive) | > 100 µM (inactive) | > 100 µM (inactive) | > 100 µM (inactive) | > 100 µM (inactive) | > 100 µM (inactive) | > 100 µM (inactive) | > 100 µM (inactive) | > 100 µM (inactive) | > 100 µM (inactive) | > 100 µM (inactive) | 
O=C(O)c1ccccc1NC(=O)C1CCCCC1 | 31.8 µM (inactive) | > 100 µM (inactive) | > 100 µM (inactive) | > 100 µM (inactive) | > 100 µM (inactive) | > 100 µM (inactive) | > 100 µM (inactive) | > 100 µM (inactive) | > 100 µM (inactive) | > 100 µM (inactive) |  | 66.1 µM (inactive) | > 100 µM (inactive) | > 100 µM (inactive) | > 100 µM (inactive) | > 100 µM (inactive) | > 100 µM (inactive) | > 100 µM (inactive) |  | 
COC(=O)c1ccc(CCc2cc(O)c(Br)cc2O)cc1 | 22.1 µM (inactive) | 19.5 µM (inactive) | 1.98 µM (inactive) | 17.7 µM (inactive) | 16.8 µM (inactive) | 14.6 µM (inactive) |  | 2.42 µM (inactive) | 15.7 µM (inactive) | 21.4 µM (inactive) | 10.4 µM (inactive) | 16.8 µM (inactive) | 14.1 µM (inactive) | 11.5 µM (inactive) | 15 µM (inactive) | 14.5 µM (inactive) | 12.6 µM (inactive) | 6.47 µM (inactive) | 3.2 µM (inactive) | 33.3 µM (inactive)
OCCNC1c2cc(Cl)ccc2-c2c(Cl)cc(Cl)cc21 (stereo not drawn) | 48 µM (inactive) | 30 µM (inactive) | 23.2 µM (inactive) | 35.1 µM (inactive) | 31.5 µM (inactive) | 13.2 µM (inactive) |  | 22.1 µM (inactive) | > 100 µM (inactive) | > 100 µM (inactive) | 39.2 µM (inactive) | 21.7 µM (inactive) | 35.6 µM (inactive) | > 100 µM (inactive) | 30.3 µM (inactive) | 39.7 µM (inactive) | 26.3 µM (inactive) | 3.37 µM (inactive) | 20.5 µM (inactive) | 33.1 µM (inactive)
O=c1[nH]c(=O)n(C2COC(CO)C2O)cc1F (stereo not drawn) | 5.28 µM (inactive) | 17.3 µM (inactive) | 74.8 µM (inactive) | 8.73 µM (inactive) | 39 µM (inactive) | 32.4 µM (inactive) |  | 39 µM (inactive) | 9.29 µM (inactive) | > 100 µM (inactive) | 15.1 µM (inactive) | 4.98 µM (inactive) | 30.5 µM (inactive) | 21.4 µM (inactive) | 55.3 µM (inactive) | 68.1 µM (inactive) | 72.9 µM (inactive) | 14.6 µM (inactive) | 95.3 µM (inactive) | > 100 µM (inactive)
CCn1c(SCC(=O)NNC(=S)Nc2ccc(C)cc2)nc2ccccc2c1=O | > 100 µM (inactive) | > 100 µM (inactive) | > 100 µM (inactive) | > 100 µM (inactive) | > 100 µM (inactive) | > 100 µM (inactive) |  | 27.1 µM (inactive) | > 100 µM (inactive) | > 100 µM (inactive) | > 100 µM (inactive) | 1.6 µM (inactive) | > 100 µM (inactive) | > 100 µM (inactive) | > 100 µM (inactive) | 85.5 µM (inactive) | > 100 µM (inactive) | 22 µM (inactive) | 40.6 µM (inactive) | > 100 µM (inactive)
c1cc2nnc1SCCSCCCSCCS2 | > 100 µM (inactive) | > 100 µM (inactive) | > 100 µM (inactive) | > 100 µM (inactive) | > 100 µM (inactive) | > 100 µM (inactive) |  | > 100 µM (inactive) | > 100 µM (inactive) | > 100 µM (inactive) | > 100 µM (inactive) | > 100 µM (inactive) | > 100 µM (inactive) | > 100 µM (inactive) | > 100 µM (inactive) | > 100 µM (inactive) | > 100 µM (inactive) | > 100 µM (inactive) | > 100 µM (inactive) | > 100 µM (inactive)
CCc1cccc(C)c1NC(=O)CC(=O)NNC(N)=S |  | > 100 µM (inactive) | > 100 µM (inactive) | > 100 µM (inactive) | > 100 µM (inactive) |  | > 100 µM (inactive) | > 100 µM (inactive) | > 100 µM (inactive) | > 100 µM (inactive) | > 100 µM (inactive) | > 100 µM (inactive) | > 100 µM (inactive) | > 100 µM (inactive) | > 100 µM (inactive) | > 100 µM (inactive) | > 100 µM (inactive) | > 100 µM (inactive) |  | 
